In article PMC7226469, “Polyketide-Derived Secondary Metabolites from a Dothideomycetes Fungus, Pseudopalawania siamensis gen. et sp. nov., (Muyocopronales) with Antimicrobial and Cytotoxic Activities” (Biomolecules, 2020):
pIC50: −log10 of the molar value. Converted amounts (≈) assume the structure as drawn. Structures can show the parent of a compound that is named as a salt. Where two headings read alike, the source gives them in different places. Each block holds one compound with its values, some of them ahead of it.

Assays:
HeLa cells KB3.1 = assay: In vitro cytotoxicity, MTT assay; format: cell-based; settings: Homo sapiens
Description: (§1) Gentamicin, kanamycin, nystatin, and oxytetracycline were used as positive controls against tested organisms. […] Epothilone B and methanol were used as positive and negative control, respectively.
(§2) The polyketides 1–5 were evaluated for their antimicrobial activity against selected microorganisms (Table 3) and cytotoxicity against two mammalian cell lines, HeLa cells KB3.1 and mouse fibroblast cell line L929 (Table 4). The starting concentration for antimicrobial assay and cytotoxicity assay were 66.7 and 300 µg/mL, respectively and the substances were dissolved in MeOH (1 mg/mL). […] Results were expressed as MIC or minimum inhibitory concentration (μg/mL) and IC50 or half maximal inhibitory concentration (μM) (Table 3 and Table 4).

Mouse fibroblast L929 = assay: In vitro cytotoxicity, MTT assay; format: cell-based
Description: as §1, §2

Escherichia coli = assay: MIC, 96-well serial dilution; format: cell-based; settings: strain DSM 1116, starting concentration 66.7 µg/mL, control volume in brackets; note: key: (-): no inhibition
Description: as §1, §2

Bacillus subtilis = assay: MIC, 96-well serial dilution; format: cell-based; settings: for MIC: Bacillus subtilis
Description: as §1, §2

Mucor hiemalis = assay: MIC, 96-well serial dilution; format: cell-based; for Minimum Inhibitory Concentration (MIC): key: (-): no inhibition
Description: as §1, §2

[1] = test system: Chromobacterium violaceum; assay: MIC, 96-well serial dilution; format: cell-based; settings: strain DSM 30191, starting concentration 66.7 µg/mL, control volume in brackets; note: key: (-): no inhibition
Description: as §1, §2

Staphylococcus aureus = assay: MIC, 96-well serial dilution; format: cell-based; settings: for MIC: Staphylococcus aureus
Description: as §1, §2

Pseudomonas aeruginosa = assay: MIC, 96-well serial dilution; format: cell-based; settings: strain PA14; starting concentration 66.7 µg/mL; control volume in brackets; note: key: (-): no inhibition
Description: as §1, §2

Micrococcus luteus = assay: MIC, 96-well serial dilution; format: cell-based; settings: for MIC: Micrococcus luteus
Description: as §1, §2

Candida albicans = assay: MIC, 96-well serial dilution; format: cell-based
Description: as §1, §2

Mycobacterium smegmatis = assay: MIC, 96-well serial dilution; format: cell-based
Description: as §1, §2

[2] = test system: various fungal and bacterial strains; assay: Antimicrobial activity against selected microorganisms (summary statements); format: cell-based; settings: for Antimicrobial activity (in words): fungi and bacteria of Table 3
Description: as §1, §2

[3] = test system: several cancer cell lines; design: method as in PMID 30258223; settings: cell proliferation inhibition and apoptosis induction; cited from earlier work
[4] = design: method as in PMID 30258223; settings: cited from earlier work
CCR5-tropic HIV-1 = test system: CCR5-tropic HIV-1; design: method as in PMID 29258357; settings: inhibition of infection; cited from earlier work
[5] = test system: MDA-MB-435 human melanoma cells; design: method as in PMID 23232928; settings: cited from earlier work
[6] = test system: SW620 human colorectal adenocarcinoma cell lines; design: method as in PMID 23232928; settings: cited from earlier work
CXCR4-tropic HIV-1 = test system: CXCR4-tropic HIV-1; design: method as in PMID 29258357; settings: inhibition of infection; cited from earlier work
B. subtilis = test system: B. subtilis; design: method as in PMID 30258223; settings: cited from earlier work
E. coli = test system: E. coli; design: method as in PMID 30258223; settings: cited from earlier work
M. luteus = test system: M. luteus; design: method as in PMID 30258223; settings: cited from earlier work
[7] = test system: Pseudoalteromonas nigrifaciens; design: method as in PMID 30258223; settings: cited from earlier work
[8] = test system: HeLa cells KB3.1 and mouse fibroblast cell line L929; assay: Cytotoxicity against two mammalian cell lines (summary statements); settings: HeLa KB3.1 and L929
Description: as §1, §2

[9] = test system: Schizosaccharomyces pombe; assay: MIC, 96-well serial dilution; format: cell-based; settings: strain DSM 70572; starting concentration 66.7 µg/mL; control volume in brackets
Description: as §1, §2

Rhodoturula glutinis = assay: MIC, 96-well serial dilution; format: cell-based; settings: strain DSM 10134; starting concentration 66.7 µg/mL; control volume in brackets
Description: as §1, §2

Cryptococcus neoformans = assay: MIC, 96-well serial dilution; format: cell-based; settings: strain DSM 15466; starting concentration 66.7 µg/mL; control volume in brackets
Description: as §1, §2

Pichia anomala = assay: MIC, 96-well serial dilution; format: cell-based; settings: strain DSM 6766; starting concentration 66.7 µg/mL; control volume in brackets
Description: as §1, §2

[10] = MTT assay, HeLa cells KB3.1, starting concentration 66 μg/mL, read-out: IC50
[11] = MTT assay, mouse fibroblast L929, starting concentration 66 μg/mL, read-out: IC50
[12] = DSM10, strain DSM 10, starting concentration 66.7 µg/mL, control volume in brackets, read-out: Minimum Inhibitory Concentration (MIC)
[13] = strain DSM 6766, starting concentration 66.7 µg/mL, control volume in brackets
[14] = DSM346, strain DSM 346, starting concentration 66.7 µg/mL, control volume in brackets, read-out: Minimum Inhibitory Concentration (MIC)
[15] = DSM1790, strain DSM 1790, starting concentration 66.7 µg/mL, control volume in brackets, read-out: Minimum Inhibitory Concentration (MIC)
[16] = strain DSM 10, starting concentration 66.7 µg/mL, control volume in brackets
[17] = strain DSM 346, starting concentration 66.7 µg/mL, control volume in brackets
[18] = strain DSM 1790, starting concentration 66.7 µg/mL, control volume in brackets

Compound: COC(=O)C1(C2OC(=O)CC2C)CC(=O)c2c(O)ccc(-c3ccc4c(c3O)C(=O)C3(O)C5(O)CC(C)C(O)C3(O4)C(=O)O5)c2O1 (stereo not drawn) [Compound 1, pseudopalawanone]
pIC50 (HeLa cells KB3.1; [10]): 4.53 | pIC50 (Mouse fibroblast L929; [11]): 4.30 | Minimum Inhibitory Concentration (MIC) (Escherichia coli): - | MIC (Bacillus subtilis; [12]): 66.7 µg/mL (≈ 104 µM) | Minimum Inhibitory Concentration (MIC) (Mucor hiemalis; [13]): - | Minimum Inhibitory Concentration (MIC) [1]: - | MIC (Staphylococcus aureus; [14]): 66.7 µg/mL (≈ 104 µM) | Minimum Inhibitory Concentration (MIC) (Pseudomonas aeruginosa): - | MIC (Micrococcus luteus; [15]): 66.7 µg/mL (≈ 104 µM)

Compound: C[C@H]1CC(O)=C2C(=O)c3c(O)ccc(-c4ccc(O)c5c4O[C@]4(C(=O)O)C(=C(O)C[C@H](C)[C@H]4O)C5=O)c3O[C@@]2(C(=O)O)[C@@H]1O [Compound 2, 4,4′-secalonic acid D]
pIC50 (HeLa cells KB3.1; [10]): 5.41 | pIC50 (Mouse fibroblast L929; [11]): 4.85 | Minimum Inhibitory Concentration (MIC) (Escherichia coli): - | MIC (Candida albicans; Candida albicans, DSM1665, read-out: Minimum Inhibitory Concentration (MIC)): 66.7 µg/mL (≈ 109 µM) | Inhibition of Candida albicans (in words) (Candida albicans; comparable to nystatin): showed inhibition | MIC (Bacillus subtilis; DSM10, read-out: Minimum Inhibitory Concentration (MIC)): 1 µg/mL (≈ 1.64 µM) | Minimum Inhibitory Concentration (MIC) (Mucor hiemalis; [13]): - | Activity against Mycobacterium smegmatis (in words) (Mycobacterium smegmatis): showed activity | MIC (Mycobacterium smegmatis; Mycolicibacterium smegmatis, ATCC700084, read-out: Minimum Inhibitory Concentration (MIC)): 66.7 µg/mL (≈ 109 µM) | Minimum Inhibitory Concentration (MIC) [1]: - | MIC (Staphylococcus aureus; DSM346, read-out: Minimum Inhibitory Concentration (MIC)): 4.2 µg/mL (≈ 6.88 µM) | Minimum Inhibitory Concentration (MIC) (Pseudomonas aeruginosa): - | MIC (Micrococcus luteus; DSM1790, read-out: Minimum Inhibitory Concentration (MIC)): 8.3 µg/mL (≈ 13.6 µM) | Inhibitory activity against Gram-positive bacteria (in words) ([2]; Bacillus subtilis, Micrococcus luteus, Mycobacterium smegmatis, Staphylococcus aureus): showed inhibitory activity | Antitumor activity (in words) [3]: “potent” antitumor activity | Toxicity (in words) [4]: low toxicity

Compound: C[C@H]1CC(O)=C2C(=O)c3c(ccc(-c4ccc(O)c5c4O[C@]4(C(=O)O)C(=C(O)C[C@H](C)[C@@H]4O)C5=O)c3O)O[C@@]2(C(=O)O)[C@H]1O [Compound 3, penicillixanthone A]
Anti-HIV-1 activity (in words) (CCR5-tropic HIV-1): inhibiting | Cytotoxic effects (in words) [5]: moderate cytotoxic effects | pIC50 (HeLa cells KB3.1; [10]): 4.76 | pIC50 (Mouse fibroblast L929; [11]): < 3.99 | Cytotoxic effects (in words) [6]: moderate cytotoxic effects | Minimum Inhibitory Concentration (MIC) (Escherichia coli): - | MIC (Bacillus subtilis; [12]): 4.2 µg/mL (≈ 6.88 µM) | MIC (Mucor hiemalis; Mucor hiemalis, DSM6766, strain DSM 6766, starting concentration 66.7 µg/mL, control volume in brackets, read-out: Minimum Inhibitory Concentration (MIC)): 66.7 µg/mL (≈ 109 µM) | Inhibition of Mucor hiemalis (in words) (Mucor hiemalis; comparable to nystatin): inhibited | Minimum Inhibitory Concentration (MIC) [1]: - | MIC (Staphylococcus aureus; [14]): 33.3 µg/mL (≈ 54.5 µM) | Minimum Inhibitory Concentration (MIC) (Pseudomonas aeruginosa): - | MIC (Micrococcus luteus; [15]): 33.3 µg/mL (≈ 54.5 µM) | Anti-HIV-1 activity (in words) (CXCR4-tropic HIV-1): inhibiting | Antibacterial activity (in words) (B. subtilis): moderate antibacterial activity | Antibacterial activity (in words) (E. coli): moderate antibacterial activity | Antibacterial activity (in words) (M. luteus): moderate antibacterial activity | Antibacterial activity (in words) [7]: moderate antibacterial activity

Compound: COC(=O)C1(C2OC(=O)CC2C)CC(=O)c2c(O)cccc2O1 (stereo not drawn) [Compound 4, paecilin B]
pIC50 (HeLa cells KB3.1; [10]): < 3.70 | pIC50 (Mouse fibroblast L929; [11]): < 3.99 | Minimum Inhibitory Concentration (MIC) (Escherichia coli): - | Minimum Inhibitory Concentration (MIC) (Bacillus subtilis; [16]): - | Minimum Inhibitory Concentration (MIC) (Mucor hiemalis; [13]): - | Minimum Inhibitory Concentration (MIC) [1]: - | Minimum Inhibitory Concentration (MIC) (Staphylococcus aureus; [17]): - | Minimum Inhibitory Concentration (MIC) (Pseudomonas aeruginosa): - | Minimum Inhibitory Concentration (MIC) (Micrococcus luteus; [18]): - | Antimicrobial activity (in words) [2]: neither antimicrobial nor cytotoxic activities | Cytotoxic activity (in words) [8]: neither antimicrobial nor cytotoxic activities

Compound: Cc1ccc(C(=O)c2c(O)cccc2C(=O)O)c(O)c1 [Compound 5, cephalanone F]
pIC50 (HeLa cells KB3.1; [10]): < 3.70 | pIC50 (Mouse fibroblast L929; [11]): < 3.99 | Minimum Inhibitory Concentration (MIC) (Escherichia coli): - | Minimum Inhibitory Concentration (MIC) (Bacillus subtilis; [16]): - | Minimum Inhibitory Concentration (MIC) (Mucor hiemalis; [13]): - | Minimum Inhibitory Concentration (MIC) [1]: - | Minimum Inhibitory Concentration (MIC) (Staphylococcus aureus; [17]): - | Minimum Inhibitory Concentration (MIC) (Pseudomonas aeruginosa): - | Minimum Inhibitory Concentration (MIC) (Micrococcus luteus; [18]): - | Antimicrobial activity (in words) [2]: neither antimicrobial nor cytotoxic activities | Cytotoxic activity (in words) [8]: neither antimicrobial nor cytotoxic activities

Compound: C/C(=C\c1csc(C)n1)[C@@H]1C[C@@H]2O[C@]2(C)CCC[C@H](C)[C@H](O)[C@@H](C)C(=O)C(C)(C)[C@@H](O)CC(=O)O1 [Epothilone B, reference compound]
pIC50 (HeLa cells KB3.1): 10.05 | pIC50 (Mouse fibroblast L929; Mus musculus, L929): 8.74

Minimum Inhibitory Concentration (MIC) (Mycobacterium smegmatis; strain ATCC 700084, starting concentration 66.7 µg/mL, control volume in brackets): 3.3 (2 µL K) μg/mL
Compound: NC[C@H]1O[C@H](O[C@H]2[C@H](O)[C@@H](O[C@H]3O[C@H](CO)[C@@H](O)[C@H](N)[C@H]3O)[C@H](N)C[C@@H]2N)[C@H](O)[C@@H](O)[C@@H]1O [K, kanamycin, reference compound]

Compound: C[C@@H]1[C@H](O)[C@@H](C)/C=C/C=C/CC/C=C/C=C/C=C/C=C/C(O[C@H]2O[C@H](C)[C@@H](O)[C@H](N)[C@@H]2O)CC2O[C@](O)(CC(O)C(O)CCC(O)CC(O)CC(O)CC(=O)O[C@H]1C)CC(O)C2C(=O)O (stereo partly drawn) [N, nystatin]
Minimum Inhibitory Concentration (MIC) [9]: 33.3 (20 µL N) μg/mL | Minimum Inhibitory Concentration (MIC) (Candida albicans; strain DSM 1665, starting concentration 66.7 µg/mL, control volume in brackets): 66.7 (20 µL N) μg/mL | Minimum Inhibitory Concentration (MIC) (Rhodoturula glutinis): 16.7 (20 µL N) μg/mL | Minimum Inhibitory Concentration (MIC) (Cryptococcus neoformans): 66.7 (20 µL N) μg/mL | Minimum Inhibitory Concentration (MIC) (Pichia anomala): 66.7 (20 µL N) μg/mL

Compound: CN(C)[C@@H]1C(O)=C(C(N)=O)C(=O)[C@@]2(O)C(O)=C3C(=O)c4c(O)cccc4[C@@](C)(O)[C@H]3[C@H](O)[C@@H]12 [O, oxytetracycline hydrochloride, reference compound]
MIC (Escherichia coli; Escherichia coli, DSM1116, read-out: Minimum Inhibitory Concentration (MIC)): 3.3 µg/mL | MIC (Bacillus subtilis; [12]): 8.3 µg/mL | MIC ([1]; Chromobacterium violaceum, DSM30191, read-out: Minimum Inhibitory Concentration (MIC)): 1.7 µg/mL | MIC (Staphylococcus aureus; [14]): 0.2 µg/mL | MIC (Micrococcus luteus; [15]): 0.4 µg/mL
